This note sets out measurements from ChEMBL document CHEMBL3045734, “Synthesis of Mannich Bases of 2, 6-Disubstituted 2H-pyran-3(6H)-ones and their Miticidal Activity” (1994).

The structures appear in SMILES notation.

What all share (format): functional
Test [1] deals with Tetranychus urticae. Description: Miticidal activity against Tetranychus urticae (two-spotted spider mite) in kidney beans assessed as mortality under greenhouse at 300 ppm at 25 +/- 2 degC measured after 48 hr of spray.
Test [2] deals with Tetranychus urticae. Description: Miticidal activity against Tetranychus urticae (two-spotted spider mite) in kidney beans assessed as mortality under greenhouse at 50 ppm at 25 +/- 2 degC measured after 48 hr of spray.
The subject of test [3] is Tetranychus urticae. Nature of the test: Miticidal activity against Tetranychus urticae (two-spotted spider mite) in kidney beans assessed as mortality under greenhouse at 600 ppm at 25 +/- 2 degC measured after 48 hr of spray.
Test [4] deals with Tetranychus urticae. Description: Miticidal activity against Tetranychus urticae (two-spotted spider mite) in kidney beans assessed as mortality under greenhouse at 100 ppm at 25 +/- 2 degC measured after 48 hr of spray.
The test system of test [5] is Tetranychus kanzawai. Nature of the test: Miticidal activity against Tetranychus kanzawai in kidney beans assessed as mortality under greenhouse at 50 ppm at 25 +/- 2 degC measured after 48 hr of spray.
Test [6] has as its system Panonychus citri. Description: Miticidal activity against Panonychus citri in satsuma mandarin assessed as mortality under greenhouse at 100 ppm at 25 +/- 2 degC measured after 48 hr of spray.
Test [7] deals with Panonychus citri. Nature of the test: Miticidal activity against Panonychus citri in satsuma mandarin assessed as mortality under greenhouse at 50 ppm at 25 +/- 2 degC measured after 48 hr of spray.
In test [8] the test system is Tetranychus kanzawai. Description: Miticidal activity against Tetranychus kanzawai in kidney beans assessed as mortality under greenhouse at 300 ppm at 25 +/- 2 degC measured after 48 hr of spray.
The subject of test [9] is Panonychus citri. Nature of the test: Miticidal activity against Panonychus citri in satsuma mandarin assessed as mortality under greenhouse at 300 ppm at 25 +/- 2 degC measured after 48 hr of spray.
The test system of test [10] is Panonychus citri. Nature of the test: Miticidal activity against Panonychus citri in satsuma mandr assessed as next generation adult mites under greenhouse at 300 ppm at 25 +/- 2 degC measured after 14 days of spray relative to control.
For test [11], the system named is Tetranychus urticae. Description: Miticidal activity against Tetranychus urticae (two-spotted spider mite) in kidney beans assessed as next generation adult mites under greenhouse at 300 ppm at 25 +/- 2 degC measured after 14 days of spray relative to control.
Test [12] deals with Tetranychus kanzawai. Nature of the test: Miticidal activity against Tetranychus kanzawai in kidney beans assessed as next generation adult mites under greenhouse at 300 ppm at 25 +/- 2 degC measured after 14 days of spray relative to control.
Test [13] concerns Tetranychus kanzawai. Description: Miticidal activity against Tetranychus kanzawai in kidney beans assessed as mortality under greenhouse at 100 ppm at 25 +/- 2 degC measured after 48 hr of spray.

Broadly, the mortality is the percentage killed. Turning to `CCCCCCC1OC(OC)C=C(CN2CCCCC2)C1=O` (centres undefined), the mortality at 300 ppm in the test on Tetranychus urticae [1] came to 100%. In addition, the mortality at 50 ppm in the test on Tetranychus urticae [2] amounted to 40%. For the same compound, the mortality at 600 ppm in the test with Tetranychus urticae [3] is 100%. Moreover, the mortality at 100 ppm in the test with Tetranychus urticae [4] was found to be 77%.

For `CCCCCCCCC1OC(OC)C=C(CN2CCCCC2)C1=O` (centres undefined), in the test with Tetranychus urticae [1], the mortality at 300 ppm stood at 90%. In addition, the mortality at 600 ppm with Tetranychus urticae [3] turned out to be 100%. Besides, in the test on Tetranychus urticae [4], the mortality at 100 ppm stood at 50%.

`CCCCCCC1OC(OC2CCCCC2)C=C(CN2CCCCC2)C1=O` (centres undefined): the mortality at 300 ppm in the test on Tetranychus urticae [1] came out at 100%. Also, the mortality at 50 ppm in the test on Tetranychus urticae [2] was found to be 40%. Also, in the test with Tetranychus urticae [4], the mortality at 100 ppm is 82%.

For the compound `CCCCCCC1OC(OCc2ccccc2)C=C(CN2CCCCC2)C1=O` (centres undefined), in the test with Tetranychus urticae [1], the mortality at 300 ppm was found to be 55%. In addition, the mortality at 100 ppm in the test with Tetranychus urticae [4] was determined as 40%.

Turning to `CCCCCCC1OC(Oc2ccccc2)C=C(CN2CCCCC2)C1=O` (centres undefined), in the test with Tetranychus urticae [1], the mortality at 300 ppm worked out at 60%. Moreover, the mortality at 100 ppm with Tetranychus urticae [4] was 20%.

Turning to `CCCCCCCCCCCCC1OC(OC)C=C(CN2CCCCC2)C1=O` (centres undefined), the mortality at 300 ppm with Tetranychus urticae [1] came to 65%. Besides, in the test on Tetranychus urticae [3], the mortality at 600 ppm worked out at 90%.

For the compound `COC1C=C(CN2CCCCC2)C(=O)C(c2ccccc2)O1` (centres undefined), the mortality at 600 ppm with Tetranychus urticae [3] was 30%.

Regarding `CCCCCCC1OC(OC)C=C(CN(CC)CC)C1=O` (centres undefined), the mortality at 600 ppm in the test on Tetranychus urticae [3] came to 60%.

For `CCN(CC)CC1=CC(OC)OC(C2CCCCC2)C1=O` (centres undefined), in the test with Tetranychus urticae [3], the mortality at 600 ppm came out at 60%.

`CCCCCCC1OC(OC)C=C(CN(CCCC)CCCC)C1=O` (centres undefined): the mortality at 600 ppm in the test with Tetranychus urticae [3] came out at 75%.

For `CCCCN(CCCC)CC1=CC(OC)OC(C2CCCCC2)C1=O` (centres undefined), the mortality at 600 ppm in the test with Tetranychus urticae [3] was determined as 70%.

Regarding `CCCCCCC1OC(OC)C=C(CN2CCCC2)C1=O` (centres undefined), in the test with Tetranychus urticae [3], the mortality at 600 ppm was 70%.

`COC1C=C(CN2CCCC2)C(=O)C(C2CCCCC2)O1` (centres undefined): the mortality at 600 ppm in the test with Tetranychus urticae [3] amounted to 68%.

Take `CCCCCCC1OC(OC)C=C(CN2CCOCC2)C1=O` (centres undefined): in the test with Tetranychus urticae [1], the mortality at 300 ppm turned out to be 65%. Besides, the mortality at 600 ppm in the test with Tetranychus urticae [3] was 90%.

With `COC1C=C(CN2CCOCC2)C(=O)C(C2CCCCC2)O1` (centres undefined), the mortality at 300 ppm with Tetranychus urticae [1] was determined as 65%. The mortality at 600 ppm in the test on Tetranychus urticae [3] is 90%.

Take `CCCCCCC1OC(OC)C=C(CN2CCC(C)CC2)C1=O` (centres undefined): the mortality at 300 ppm with Tetranychus urticae [1] is 95%. Also, in the test with Tetranychus urticae [3], the mortality at 600 ppm amounted to 100%. Moreover, the mortality at 100 ppm in the test on Tetranychus urticae [4] was determined as 70%.

For the compound `COC1C=C(CN2CCC(C)CC2)C(=O)C(C2CCCCC2)O1` (centres undefined), in the test on Tetranychus urticae [1], the mortality at 300 ppm was 85%. Besides, in the test with Tetranychus urticae [3], the mortality at 600 ppm stood at 100%. The mortality at 100 ppm with Tetranychus urticae [4] turned out to be 60%.

With `CCCCCCC1OC(OC)C=C(CN2CCCC(C)C2)C1=O` (centres undefined), in the test with Tetranychus urticae [1], the mortality at 300 ppm was 85%. In addition, the mortality at 600 ppm in the test with Tetranychus urticae [3] is 100%. Also, in the test on Tetranychus urticae [4], the mortality at 100 ppm stood at 55%.

`COC1C=C(CN2CCCC(C)C2)C(=O)C(C2CCCCC2)O1` (centres undefined): the mortality at 300 ppm with Tetranychus urticae [1] was determined as 83%. Besides, the mortality at 600 ppm in the test on Tetranychus urticae [3] amounted to 100%. In addition, in the test on Tetranychus urticae [4], the mortality at 100 ppm came out at 65%.

With `CCCCCCC1OC(OC)C=C(CN2CCCCC2C)C1=O` (centres undefined), the mortality at 300 ppm in the test on Tetranychus urticae [1] turned out to be 60%. Also, in the test on Tetranychus urticae [3], the mortality at 600 ppm is 90%.

`COC1C=C(CN2CCCCC2C)C(=O)C(C2CCCCC2)O1` (centres undefined): the mortality at 300 ppm with Tetranychus urticae [1] came out at 55%. Besides, in the test with Tetranychus urticae [3], the mortality at 600 ppm is 80%.

Take `CCCCCCC1OC(OCC)C=C(CN2CCCCC2)C1=O` (centres undefined): in the test on Tetranychus urticae [1], the mortality at 300 ppm turned out to be 100%. For the same compound, the mortality at 50 ppm with Tetranychus urticae [2] stood at 40%. In the test on Tetranychus urticae [4], the mortality at 100 ppm came out at 70%.

On to `CCCCCCC1OC(OCCC)C=C(CN2CCCCC2)C1=O` (centres undefined), for which the mortality at 300 ppm with Tetranychus urticae [1] is 100%. Moreover, the mortality at 50 ppm with Tetranychus urticae [2] came to 70%. Moreover, the mortality at 100 ppm in the test with Tetranychus urticae [4] is 100%.

With `CCCCCCC1OC(OC(C)C)C=C(CN2CCCCC2)C1=O` (centres undefined), the mortality at 300 ppm with Tetranychus urticae [1], in the test with Tetranychus kanzawai [8] and with Panonychus citri [9] was 100% throughout. In addition, the results for the mortality at 50 ppm in the test with Tetranychus kanzawai [5], with Panonychus citri [7] and in the test with Tetranychus urticae [2] were 93%, 88% and 90%, respectively. For the same compound, the mortality at 100 ppm with Panonychus citri [6], with Tetranychus kanzawai [13] and in the test on Tetranychus urticae [4] was 100% throughout. Further, the Activity with Panonychus citri [10] came out at 91%; with Tetranychus urticae [11] it was 93%; in the test with Tetranychus kanzawai [12], 90%.

For the compound `CCCCCCC1OC(OCCCC)C=C(CN2CCCCC2)C1=O` (centres undefined), the mortality at 300 ppm in the test with Tetranychus urticae [1] worked out at 100%. Further, in the test with Tetranychus urticae [2], the mortality at 50 ppm came to 40%. Also, the mortality at 100 ppm in the test with Tetranychus urticae [4] is 75%.

With `CCCCCCC1OC(OCC(C)C)C=C(CN2CCCCC2)C1=O` (centres undefined), the mortality at 300 ppm with Tetranychus urticae [1] stood at 100%. Besides, the mortality at 50 ppm with Tetranychus urticae [2] turned out to be 75%. The mortality at 100 ppm in the test on Tetranychus urticae [4] came to 92%.

Take `CCCCCCC1OC(OC(C)(C)C)C=C(CN2CCCCC2)C1=O` (centres undefined): the mortality at 300 ppm in the test on Tetranychus urticae [1] turned out to be 95%. Also, the mortality at 50 ppm in the test on Tetranychus urticae [2] came to 50%. Also, in the test on Tetranychus urticae [4], the mortality at 100 ppm was determined as 75%.

Consider `CCCCCCOC1C=C(CN2CCCCC2)C(=O)C(CCCCCC)O1` (centres undefined), for which the mortality at 300 ppm with Tetranychus urticae [1] is 85%. The mortality at 50 ppm in the test with Tetranychus urticae [2] came to 45%. In addition, in the test on Tetranychus urticae [4], the mortality at 100 ppm came to 70%.

Turning to `COC1C=C(CN2CCCCC2)C(=O)CO1` (centres undefined), the mortality at 300 ppm in the test with Tetranychus urticae [1] is 10%. Besides, the mortality at 600 ppm with Tetranychus urticae [3] came to 70%.

Consider `CCCC1OC(OC)C=C(CN2CCCCC2)C1=O` (centres undefined), for which the mortality at 300 ppm in the test with Tetranychus urticae [1] came out at 20%. Besides, the mortality at 600 ppm in the test on Tetranychus urticae [3] stood at 90%.

As for `CCCCC1OC(OC)C=C(CN2CCCCC2)C1=O` (centres undefined), in the test with Tetranychus urticae [1], the mortality at 300 ppm came to 87%. Further, the mortality at 600 ppm with Tetranychus urticae [3] came out at 90%. Moreover, the mortality at 100 ppm in the test on Tetranychus urticae [4] came out at 10%.

As for `CCCCCC1OC(OC)C=C(CN2CCCCC2)C1=O` (centres undefined), the mortality at 300 ppm in the test on Tetranychus urticae [1] was determined as 95%. Moreover, the mortality at 600 ppm in the test with Tetranychus urticae [3] is 100%. The mortality at 100 ppm with Tetranychus urticae [4] stood at 20%.

For `COC1C=C(CN2CCCCC2)C(=O)C(C2CCCCC2)O1` (centres undefined), the mortality at 300 ppm with Tetranychus urticae [1] turned out to be 100%. The mortality at 600 ppm in the test on Tetranychus urticae [3] was 100%. Besides, the mortality at 100 ppm in the test with Tetranychus urticae [4] came to 68%.

`CCCCCCCCCCC1OC(OC)C=C(CN2CCCCC2)C1=O` (centres undefined): the mortality at 300 ppm in the test on Tetranychus urticae [1] stood at 70%. The mortality at 600 ppm in the test with Tetranychus urticae [3] came out at 95%. Also, the mortality at 100 ppm in the test on Tetranychus urticae [4] was found to be 20%.
